The text below walks through data of US7981893B2, “Heteroaryl compounds, compositions thereof, and methods of treatment therewith” (Signal Pharmaceuticals, LLC, priority 2006, dated 2011).

With `Cl.NCc1nc(-c2ccc(-c3cnc4[nH]c(=O)n(CC5CCCCC5)c4n3)cc2)n[nH]1`, the melting point was 326 to 329 °C.
Compound `Cl.O=c1[nH]c2ncc(-c3ccc(O)cc3)nc2n1CC1CCCN1` (stereo not shown) registered a melting point of 178 to 180 °C.
For `Cl.O=c1[nH]c2ncc(-c3ccc(-c4nnc[nH]4)cc3)nc2n1CCN1CCCCC1` the value was 194 to 197 °C; for `CC(c1ccccc1)n1c(=O)[nH]c2ncc(-c3ccnc4ccccc34)nc21` (stereo not shown) [Compound 70, 1-(1-phenylethyl)-6-(quinolin-4-yl)-1H-imidazo[4,5-b]pyrazin-2(3H)-one], 252 to 254 °C; for `COc1ccccc1-n1c(=O)[nH]c2ccc(-c3cccc(O)c3)nc21` [Compound 92, 5-(3-Hydroxyphenyl)-3-(2-methoxyphenyl)-1H-imidazo[4,5-b]pyridin-2(3H)-one], 240 to 242 °C.
For the compound `O=c1[nH]c2ncc(-c3ccc(O)cc3)nc2n1C1CCCCC1` [Compound 95, 1-Cyclohexyl-6-(4-hydroxyphenyl)-1H-imidazo[4,5-b]pyrazin-2(3H)-one], the melting point is 318 to 320 °C.
For `NC(=O)c1ccc(-c2cnc3[nH]c(=O)n(CC4CCCCC4)c3n2)cc1` [Compound 96, 4-(3-(Cyclohexylmethyl)-2-oxo-2,3-dihydro-1H-imidazo[4,5-b]pyrazin-5-yl)benzamide] the value was 293 to 295 °C; for `COC(=O)c1ccc(-c2cnc3[nH]c(=O)n(CC4CCCCC4)c3n2)cc1` [Compound 97, Methyl 4-(3-(cyclohexylmethyl)-2-oxo-2,3-dihydro-1H-imidazo[4,5-b]pyrazin-5-yl)benzoate], 253 to 255 °C.
Consider `O=c1[nH]c2ncc(-c3ccncc3)nc2n1CC1CCCCC1` [Compound 98, 1-(Cyclohexylmethyl)-6-(pyridin-4-yl)-1H-imidazo[4,5-b]pyrazin-2(3H)-one], for which the melting point lay in the range of 267 to 269 °C.
`CNC(=O)c1ccc(-c2cnc3[nH]c(=O)n(CC4CCCCC4)c3n2)cc1` [Compound 99, 4-(3-(Cyclohexylmethyl)-2-oxo-2,3-dihydro-1H-imidazo[4,5-b]pyrazin-5-yl)-N-methylbenzamide] came in with a melting point of 273 to 275 °C.
For `O=c1[nH]c2ncc(-c3ccc(CO)cc3)nc2n1CC1CCCCC1` [Compound 100, 1-(Cyclohexylmethyl)-6-(4-(hydroxymethyl)phenyl)-1H-imidazo[4,5-b]pyrazin-2(3H)-one] the value was 275 to 277 °C; for `O=c1[nH]c2ncc(-c3cccnc3)nc2n1CC1CCCCC1` [Compound 101, 1-(Cyclohexylmethyl)-6-(pyridin-3-yl)-1H-imidazo[4,5-b]pyrazin-2(3H)-one], 205 °C; for `O=c1[nH]c2ncc(-c3ccc4[nH]ccc4c3)nc2n1CC1CCCCC1` [Compound 103, 1-(Cyclohexylmethyl)-6-(1H-indol-5-yl)-1H-imidazo[4,5-b]pyrazin-2(3H)-one], 343 to 346 °C.
With `CC(C)NC(=O)c1ccc(-c2cnc3[nH]c(=O)n(CC4CCCCC4)c3n2)cc1` [Compound 104, 4-(3-(Cyclohexylmethyl)-2-oxo-2,3-dihydro-1H-imidazo[4,5-b]pyrazin-5-yl)-N-isopropylbenzamide], the melting point lay in the range of 264 to 268 °C.
`O=c1[nH]c2ncc(-c3ccc(O)cc3)nc2n1CCO` [Compound 105, 1-(2-Hydroxyethyl)-6-(4-hydroxyphenyl)-1H-imidazo[4,5-b]pyrazin-2(3H)-one] yielded a melting point of 308 to 310 °C.
Then `O=c1[nH]c2ncc(-c3ccc4cc[nH]c4c3)nc2n1CC1CCCCC1` [Compound 106, 1-(Cyclohexylmethyl)-6-(1H-indol-6-yl)-1H-imidazo[4,5-b]pyrazin-2(3H)-one], with 359 to 363 °C; and `CN1CCC(Cn2c(=O)[nH]c3ncc(-c4ccc(O)cc4)nc32)CC1` [Compound 109, 6-(4-Hydroxyphenyl)-1-((1-methylpiperidin-4-yl)methyl)-1H-imidazo[4,5-b]pyrazin-2(3H)-one], with 292 to 294 °C; and `N#Cc1ccc(-c2cnc3[nH]c(=O)n(CC4CCCCC4)c3n2)cc1` [Compound 110, 4-(3-(Cyclohexylmethyl)-2-oxo-2,3-dihydro-1H-imidazo[4,5-b]pyrazin-5-yl)benzonitrile], with 255 to 257 °C.
Then `CC(C)(O)c1ccc(-c2cnc3[nH]c(=O)n(CC4CCCCC4)c3n2)cc1` [Compound 114, 1-(Cyclohexylmethyl)-6-(4-(2-hydroxypropan-2-yl)phenyl)-1H-imidazo[4,5-b]pyrazin-2(3H)-one], with 226 to 228 °C.
Then `Cc1cc(O)ccc1-c1cnc2[nH]c(=O)n(CC3CCCCC3)c2n1` [Compound 115, 1-(Cyclohexylmethyl)-6-(4-hydroxy-2-methylphenyl)-1H-imidazo[4,5-b]pyrazin-2(3H)-one], with 212 to 214 °C.
`O=C(O)c1ccc(-c2cnc3[nH]c(=O)n(CC4CCCCC4)c3n2)cc1` [Compound 116, 4-(3-(Cyclohexylmethyl)-2-oxo-2,3-dihydro-1H-imidazo[4,5-b]pyrazin-5-yl)benzoic acid] returned a melting point above 350 °C.
For `COCCn1c(=O)[nH]c2ncc(-c3ccc(O)cc3)nc21` [Compound 117, 6-(4-Hydroxyphenyl)-1-(2-methoxyethyl)-1H-imidazo[4,5-b]pyrazin-2(3H)-one] the value was 236 to 237 °C.
Then `COCCCn1c(=O)[nH]c2ncc(-c3ccc(O)cc3)nc21` [Compound 118, 6-(4-Hydroxyphenyl)-1-(3-methoxypropyl)-1H-imidazo[4,5-b]pyrazin-2(3H)-one], with 208 to 210 °C; and `COc1cccc(CN2CC(=O)Nc3ncc(-c4ccc(O)cc4)nc32)c1` [Compound 119, 6-(4-Hydroxyphenyl)-4-(3-methoxybenzyl)-3,4-dihydropyrazino[2,3-b]pyrazin-2(1H)-one], with 282 to 283 °C.
Then `O=c1[nH]c2ncc(-c3ccc(O)cc3)nc2n1CCC1CCOCC1` [Compound 120, 6-(4-Hydroxyphenyl)-1-(2-(tetrahydro-2H-pyran-4-yl)ethyl)-1H-imidazo[4,5-b]pyrazin-2(3H)-one], with 276 to 277 °C; and `O=c1[nH]c2ncc(-c3ccc(O)cc3)nc2n1CCc1ccccc1` [Compound 121, 6-(4-Hydroxyphenyl)-1-phenethyl-1H-imidazo[4,5-b]pyrazin-2(3H)-one], with 283 to 284 °C.
Take `O=c1[nH]c2ncc(-c3ccccc3)nc2n1CC1CCCCC1` [Compound 124, 1-(Cyclohexylmethyl)-6-phenyl-1H-imidazo[4,5-b]pyrazin-2(3H)-one]: the melting point was in the range of 253 to 255 °C.
Take `O=c1[nH]c2ncc(-c3ccn[nH]3)nc2n1CC1CCCCC1` [Compound 125, 1-(Cyclohexylmethyl)-6-(1H-pyrazol-5-yl)-1H-imidazo[4,5-b]pyrazin-2(3H)-one]: the melting point was 264 to 266 °C.
Then `O=c1[nH]c2ncc(-c3cn[nH]c3)nc2n1CC1CCCCC1` [Compound 126, 1-(Cyclohexylmethyl)-6-(1H-pyrazol-4-yl)-1H-imidazo[4,5-b]pyrazin-2(3H)-one], with 246 to 248 °C; and `O=C1NCc2cc(-c3cnc4[nH]c(=O)n(CC5CCCCC5)c4n3)ccc21` [Compound 127, 1-(Cyclohexylmethyl)-6-(1-oxoisoindolin-5-yl)-1H-imidazo[4,5-b]pyrazin-2(3H)-one], with 337 to 339 °C; and `O=C1Cc2cc(-c3cnc4[nH]c(=O)n(CC5CCCCC5)c4n3)ccc2N1` [Compound 129, 1-(Cyclohexylmethyl)-6-(2-oxoindolin-5-yl)-1H-imidazo[4,5-b]pyrazin-2(3H)-one], with 313 to 316 °C.
For `O=c1[nH]c2ncc(-c3ccc4[nH]ncc4c3)nc2n1CC1CCCCC1` [Compound 130, 1-(Cyclohexylmethyl)-6-(1H-indazol-5-yl)-1H-imidazo[4,5-b]pyrazin-2(3H)-one] the value was 311 to 313 °C; for `COc1ccc(-c2cnc3[nH]c(=O)n(CC4CCCCC4)c3n2)cn1` [Compound 131, 1-(Cyclohexylmethyl)-6-(6-methoxypyridin-3-yl)-1H-imidazo[4,5-b]pyrazin-2(3H)-one], 235 to 237 °C.
For `O=c1[nH]c2ncc(-c3ccc(O)cc3)nc2n1C1CCOCC1` [Compound 132, 6-(4-Hydroxyphenyl)-1-(tetrahydro-2H-pyran-4-yl)-1H-imidazo[4,5-b]pyrazin-2(3H)-one] the value was 382 to 383 °C; for `O=c1[nH]c2ncc(-c3ccc(O)cc3)nc2n1CC1CCNCC1` [Compound 133, 6-(4-Hydroxyphenyl)-1-(piperidin-4-ylmethyl)-1H-imidazo[4,5-b]pyrazin-2(3H)-one], 300 °C (dec.).
With `O=c1[nH]c2ncc(-c3ccc(O)nc3)nc2n1CC1CCCCC1` [Compound 135, 1-(Cyclohexylmethyl)-6-(6-hydroxypyridin-3-yl)-1H-imidazo[4,5-b]pyrazin-2(3H)-one], the melting point is above 400 °C.
For the compound `COc1cc(-c2cnc3[nH]c(=O)n(CC4CCCCC4)c3n2)ccn1` [Compound 136, 1-(Cyclohexylmethyl)-6-(2-methoxypyridin-4-yl)-1H-imidazo[4,5-b]pyrazin-2(3H)-one], the melting point was 295 to 297 °C.
With `O=C1Cc2ccc(-c3cnc4[nH]c(=O)n(CC5CCCCC5)c4n3)cc2N1` [Compound 140, 1-(Cyclohexylmethyl)-6-(2-oxoindolin-6-yl)-1H-imidazo[4,5-b]pyrazin-2(3H)-one], the melting point fell in the range of 334 to 336 °C.
Then `Cc1cc(C(=O)O)ccc1-c1cnc2[nH]c(=O)n(CC3CCCCC3)c2n1` [Compound 141, 4-(3-(Cyclohexylmethyl)-2-oxo-2,3-dihydro-1H-imidazo[4,5-b]pyrazin-5-yl)-3-methyl benzoic acid], with 244 to 247 °C; and `CNC(=O)c1ccc(-c2cnc3[nH]c(=O)n(CC4CCOCC4)c3n2)cc1` [Compound 142, N-Methyl-4-(2-oxo-3-((tetrahydro-2H-pyran-4-yl)methyl)-2,3-dihydro-1H-imidazo[4,5-b]pyrazin-5-yl)benzamide], with 328 to 330 °C.
